The nature of series [1]: Anesthetized rat experiments (hemodynamics, blood levels). It counts as in vivo. Conditions: individual animals; for Outcome: IV infusion 0.3 mg/kg englerin B (doses up to 0.3 mg/kg); for Compound concentration in blood: IV infusion 0.3 mg/kg englerin B. Here is the method: Rats were anesthetized via an intra-peritoneal (ip) injection of ketamine/xylazine (80/10 mg/kg). A half dose (40 mg/kg ketamine) was given as supplemental anesthesia as needed. Animals were placed on a heating pad set to maintain body temperature at approximately 37°C. Body temperature was monitored throughout the experiment via a rectal temperature probe.
Once consciousness had been lost, the trachea was isolated and an endotracheal tube was inserted for mechanical ventilation. The endotracheal tube was connected to a mechanical ventilator that provided positive-pressure ventilation with room air, set to maintain 60 breaths/min with a tidal volume of 15 ml/kg. An incision was made on both sides of the neck. Both carotid arteries and a jugular vein were isolated and ligated anteriorly. A Millar pressure catheter was introduced into the left carotid artery to measure systolic arterial pressure (SAP), diastolic pressure (DAP), mean arterial pressure (MAP) and heart rate (HR). Another Millar pressure catheter was introduced into the left ventricular chamber through the right carotid artery to measure left ventricular systolic pressure (LVSP) and left ventricular end diastolic pressure (LVEDP).
A cannula for test compound administration was placed into a jugular vein. A lead II electrocardiogram was recorded via needle electrodes placed in the right arm, left leg and chest and PR and QRS intervals were reported.
After rats were surgically instrumented, hemodynamic and electrocardiographic monitoring was initiated. […] The duration of the experimental testing was approximately 60 minutes.
At the end of each infusion period, approximately 0.5 ml of blood was withdrawn from the vena cava into a pre-chilled collection tube containing 2.5 ml of 90% ACN (acetonitrile):10% water.

In another series the target is T1, TRPC4 (Homo sapiens, UniProt Q9UBN4).
T1 construct: host or cells: Flp-In T-REx-293 (called HEK293T with Dox-inducible TRPC4)
T1 sequence (Q9UBN4 1-977): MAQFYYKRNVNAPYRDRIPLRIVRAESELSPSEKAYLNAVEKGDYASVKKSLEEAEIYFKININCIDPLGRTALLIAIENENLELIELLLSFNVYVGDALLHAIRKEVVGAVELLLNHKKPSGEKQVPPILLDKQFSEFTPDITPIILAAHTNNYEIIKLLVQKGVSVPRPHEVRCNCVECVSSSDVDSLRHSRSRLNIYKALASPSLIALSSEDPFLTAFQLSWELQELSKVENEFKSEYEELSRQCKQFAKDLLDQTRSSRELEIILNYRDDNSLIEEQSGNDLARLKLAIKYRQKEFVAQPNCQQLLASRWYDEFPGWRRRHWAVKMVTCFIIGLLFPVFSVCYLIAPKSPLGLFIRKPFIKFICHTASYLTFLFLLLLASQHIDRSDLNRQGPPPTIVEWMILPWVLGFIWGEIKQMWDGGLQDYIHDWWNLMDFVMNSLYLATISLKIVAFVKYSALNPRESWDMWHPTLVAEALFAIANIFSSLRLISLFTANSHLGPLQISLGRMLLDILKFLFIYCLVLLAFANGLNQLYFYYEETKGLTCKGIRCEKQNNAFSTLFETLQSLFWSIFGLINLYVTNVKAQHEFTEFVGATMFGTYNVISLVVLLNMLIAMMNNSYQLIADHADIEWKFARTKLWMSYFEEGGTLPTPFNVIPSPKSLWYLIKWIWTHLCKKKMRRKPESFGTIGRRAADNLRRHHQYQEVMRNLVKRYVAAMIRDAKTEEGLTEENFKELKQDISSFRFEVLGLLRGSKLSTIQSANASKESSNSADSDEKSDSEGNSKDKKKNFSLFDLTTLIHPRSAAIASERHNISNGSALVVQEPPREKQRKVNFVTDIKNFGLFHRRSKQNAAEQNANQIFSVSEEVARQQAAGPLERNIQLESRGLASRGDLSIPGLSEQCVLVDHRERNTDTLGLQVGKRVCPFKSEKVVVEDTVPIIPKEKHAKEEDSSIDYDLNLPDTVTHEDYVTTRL
Briefly: Electrophysiology (QPatch-HT automated patch clamp, voltage ramp). It counts as cell-based. Conditions: TRPC4 expressing HEK293T cells. Here is the method: TRPC4 currents were recorded from HEK293T cells with Dox-inducible TRPC4 on the QPatch-HT automated patch clamp system at room temperature (21–24°C) (Biolin Scientific, Stockholm, Sweden). The internal solution contained (in mM): 150 Cs-aspartate, 2 MgCl2, 0.36 CaCl2, 1 EGTA, 4 MgATP, 0.3 NaGTP and 10 HEPES, pH = 7.20 with CsOH (calculated free [Ca^2+] = 100 nM using WebMaxChelator http://www.stanford.edu/~cpatton/maxc.html, assuming an ionic strength of 0.16). The standard external solution contained (in mM): 150 NaCl, 4 KCl, 2 CaCl2, 1 MgCl2, 10 HEPES and 10 D-glucose (pH = 7.40) with NaOH. Currents were elicited by a voltage ramp protocol consisting of a 50 ms step to −100 mV, followed by a 200 ms ramp to +100 mV and 10 ms at +100 mV. Voltage ramps were applied every 10 s from a holding potential of 0 mV. Results were expressed as means ± S.E.M.

The conditions of series [2]: male, Sprague Dawley, rat, in vivo, po, 5 mg/kg.
Experimental: A 25 μl aliquot of sample was subjected to protein precipitation using 150 μl of acetonitrile containing 100 ng/ml of internal standard (glyburide). After vortex and centrifugation for 5 minutes at 4000 revolutions per minute, 125 μl of supernatant was transferred to a 1 ml 96-well plate, followed by the addition of 50 μl of water. The analysis was conducted by using HPLC separation coupled with mass spectrometric detection.
Agilent 1100 (Santa Clara, CA) was used for LC separations coupled with CTC PAL (Zwingen, Switzerland). […] A Sciex API 4000 Q Trap mass spectrometer equipped with a Turbo Ionspray interface from Applied Biosystems (Framingham, MA) was used for detection. The instrument was operated in the positive ion MRM mode employing nitrogen as a collision gas. […] Data were acquired and processed by Sciex Analyst 1.5.2 software.
Standard regression and back-calculation of unknown concentrations were performed by Thermo Watson 7.4 software purchased from Thermo Fisher Scientific, Inc. (Philadelphia, PA). Quantification of the parent compound in rat blood was based on at least 5-point calibration curve. […] The bias of all calibration standards and quality control samples was within the acceptance criteria of ± 30%.

Where “and” joins values, the source holds several entries; their conditions need not be identical. Identical values can stand only once. Where only a bound is given, the exact number is not on record here.

For `CC(C)[C@@]12C[C@@H](O)[C@@](C)(O1)[C@@H]1CC[C@@H](C)[C@H]1[C@@H]2OC(=O)/C=C/c1ccccc1` [Englerin B], the Outcome result in series [1] is on record as “No effect”; in series [1] (listed as englerin B) it was “no effect on mean arterial pressure or animal viability”. For the same molecule, the “Compound concentration in blood” value in series [1] is 539 nM and 362 nM and 462 nM and 442 nM; in series [1] (listed as englerin B), 362 to 539 nM. Also, the induced current entry at TRPC4 is given as “did not induce current”. Further, the “blood levels of englerin B after dosing englerin A” value in series [2] is reported as greater than 50 nM.

(Values after article PMC4476799, “Englerin A Agonizes the TRPC4/C5 Cation Channels to Inhibit Tumor Cell Line Proliferation” (PLoS ONE, 2015).)
